The test system of one series is isolated vascular rings. Nature of the series: Vascular reactivity of isolated vascular rings in a physiological bath. The arrangement: species or system rat or pig. As to the method: Data to delineate the mechanism of action for EE-3-SO4 vis-à-vis effects on the cardiovascular system was acquired. While it is well known that estrogens act on the vascular system by a variety of mechanisms including vasorelaxation per se, specific confirmation of this fact for EE-3-SO4 was needed. […] Vessels are contracted by a variety of agents (i.e., endothelin-1, phenylephrine). The action(s) are measured with a force transducer and recorded digitally. […] (see FIG. 42).

The subject of a further series is Male Sprague Dawley rats. Nature of the series: 6 hour survival after soft tissue trauma and 60% hemorrhage without resuscitation. In kind it is in vivo, rat. As to conditions: for survival from 60% blood loss: FIG. 47, 6 hour interval after MBO, all saline vehicle controls died; for survival from 60% blood loss / survival percentage for 6 hr: no resuscitation. As to the method: Note that experimental conditions were sufficiently stringent that all saline vehicle control hemorrhaged rats died. The number of subject rats was vehicle control-20, E2-SO4-21, and EE3-SO4-20. Note that the time to begin the 6 hour interval starts after the maximum bleed out (MBO). It takes approximately 45 minutes to attain the MBO. Also please note that no resuscitation is given for the duration of the 6 hour test.
Survival studies with ethinyl 17α-estradiol-3-sulfate (EE3-SO4) in rats subjected to soft tissue trauma and 60% hemorrhage were performed as has been described for E2-SO4 and E2-cyclodextrin. Briefly, Male Sprague Dawley rats were anesthetized with isoflurane and received a 5 cm laparotomy. Cannulation was performed of 2 femoral arteries (one for bleeding and the one for blood pressure monitoring) and one femoral vein to administer drug or saline. Rats were bled to 62.9% total blood volume within 45 min with a mean arterial blood pressure of 40 mmHg achieved in 10 min and maintained at the pressure throughout the bleeding procedure. At the point of maximum bleed out (MBO), estrogen compounds were administered. Survival was monitored for 6 hours following MBO.
The optimum dose of EE-3-SO4 to promote rat survival for 6 hr was determined. The doses of 0.1 mg/kg (n=6), 0.3 mg/kg (n=6), 1.0 mg/kg (n=7) and 3.0 mg/kg (n=6) were used. The respective survival percentages were 16%, 50%, 87% and 50%, respectively (FIG. 41). Vehicle controls were matched for each group and the numbers of test rats were identical as well. No vehicle controls of any group survived for 6 hr (i.e., 100% death).

The subject of series [1] is Sprague-Dawley adult male rats. Nature of the series: Traumatic brain injury (lateral fluid percussion): ICP, CPP and pbtO2 monitoring. In kind it is in vivo, rat. As to conditions: for intracranial pressure vs untreated vehicle controls: FIG. 44, measured over a 120 min period. As to the method:
Sprague-Dawley adult male rats were divided into 4 groups: vehicle, E2-SO4 (1 mg/kg), sham+vehicle and sham+E2-SO4; n=5/group. The TBI model was lateral fluid percussion injury (LFP), induced via a hydraulic pressure pulse to the anesthetized rat's exposed brain. This was introduced through a burr hole in the lateral skull prepared one day prior to LFP. A single iv dose of E2-SO4 or saline vehicle was administered 1 hr after LFP. Physiological parameters were measured 24 hr post-injury.
(§1) In a second experiment, the efficacy of E2-SO4 treatment for TBI in a lateral fluid percussion (LFP) model was examined. This involved 6 groups of rats (n=5/group). All rats received a craniectomy. Groups 1, 2, 4 and 5 received LFP injury. Groups 1 and 4 were treated with E2 (1 mg/kg) 1 hr post-injury, groups 2 and 5 were vehicle (Veh)-treated and groups 3 and 6 were sham. Groups 1-3 underwent intracranial pressure (ICP), cerebral perfusion pressure (CPP) and partial oxygen pressure (pbtO2) monitoring. Groups 4-6 underwent fludoexoyglucose (FDG)-PET/CT and diffusion tensor imaging (DTI) analysis on days 1 and 7 post-induction. Relative standard uptake values (SUV) of upper half of brain to central value, fractional anisotropy (FA) and apparent diffusion coefficient (ADC) maps were calculated.
FIG. 48B is a plot of cerebral perfusion pressure, which is a derivative of mean arterial pressure less ICP. […] The X axis is shown for an extended 2 hours to confirm stability for the various probes used.
The clinical manifestation of edema after TBI can be seen as increased intracranial pressure, with lower brain perfusion pressure and reduced oxygen tension. […] FIG. 44 compares treatments for TBI with hormones, measured over a 120 min period to control the effects of the invasive probe on pressures. The treatments are progesterone (T+progesterone: magenta), progesterone plus E2-SO4 (T+E+P: brown), E2-SO4 (T+E2SO4: red) and EE-3-SO4 (T+EE-3SO4: yellow).

In series [2] the test system is mean arterial blood pressure (MAP). Briefly: Mean arterial blood pressure spike after iv administration in hemorrhaged rats. It counts as in vivo, rat. The settings on record: for “spike” in mean arterial blood pressure (MAP) just after administration: rapid iv injection in ~1 min at MBO. The source says:
An additional practical matter to be resolved was removing or dampening the ever-present “spike” in mean arterial blood pressure (MAP) observed just after administration of EE-3-SO4, which was also observed with E2-CD and E2-SO4. Because this could be a threat to the hemorrhage patient by having this transient pressure rise destabilize and eject nascent hemostatic “plugs” in damaged vessels, a solution was developed for the potential problem. By giving the iv bolus of […] in a slightly longer interval over 5 min starting at MBO rather than a more rapid injection in ˜1 min (i.e., a “slow push”), the benefits of EE-3-SO4 remained while the MAP “spike” was removed. To determine the maximum reduction in the blood pressure spike studies were further conducted with a push over a 10 min period.

The next series relates to injured brain. Briefly: Traumatic brain injury: FDG-PET/CT, diffusion tensor imaging and MRI edema. It counts as in vivo, rat. As to conditions: FIG. 43; day 1 and day 7 vs saline vehicle. As to the method: as §1
Rats were either treated with E2 or a saline vehicle control, where treatment is administered 1 hour after injury. […] The former is the area of deranged nerves, while the latter constitutes intact nerves.

A further series concerns Male SD rats. Nature of the series: Survival and blood pressure after trauma-hemorrhage with 60% blood loss and no fluid resuscitation. In kind it is in vivo, rat. The settings on record: FIG. 21; trauma and major blood loss, crystalloid resuscitation after initial 3-hour interval; all untreated controls died within 3 hours. As to the method:
16 rats were subjected to 60% removal of blood volume, using the same protocol found in Example 5.
Furthermore, crystalloid fluid resuscitation was administered following an initial 3-hour interval after the trauma and major blood loss, and rats were followed for 7 days. It has been observed that rats which survive for the initial 3 hours uniformly go on to survive for prolonged period of time and were then sacrificed. The survival rate is 68% for estrogen-treated rats, while all untreated control rats have died within the initial 3-hour interval (see FIG. 21).
Although E2 administration after trauma-hemorrhage (T-H) and fluid resuscitation produces salutary effects on organ functions, it was not known if E2 has any beneficial effects after major blood loss in the absence of fluid resuscitation. Male SD rats ˜250 g) underwent T-H (tissue trauma, BP 40 mmHg in 10 min and maintained at that BP by further blood withdrawal until maximum bleed out (MBO, 60% of total blood volume) occurred (45:t5 min)). E2 i.v. (1 mg/Kg, 0.4 ml/Kg volume, i.e., 120 μL/300 g body weight) or vehicle (cyclodextrin, CD) was then infused. No additional fluid was given for 3 hours. If rats survived, they received Ringer's lactate, 4× the MBO volume. A custom-fabricated 31p coil was placed on the surface of the rat's liver after laparotomy in another group, and spectra acquired using 4.7T NMR spectroscopy via a 31p coil in real time before and during hemorrhagic shock. Shock increased phosphomonoester and Pi with a concomitant decrease in β-ATP in both groups.

As to `CN[C@@H](CCCNC(=N)N)C(=O)O` [methyl arginine], in the series on isolated vascular rings (antagonist added to EE-3-SO4), the “antagonism of EE-3-SO4's vessel relaxation” value is listed as “relaxation can be inhibited”.
With `C[C@]12CC[C@@H]3c4ccc(OS(=O)(=O)O)cc4CC[C@H]3[C@@H]1CC[C@@H]2OS(=O)(=O)O` [E2-SO4, 17-β-estradiol 3, 17 disulfate], in the series with Male Sprague Dawley rats, the “survival from 60% blood loss” value is 66%. Also, the “intracranial pressure vs untreated vehicle controls” value in series [1] is “greatly reduce the pressure”. For the same compound, in series [1] (TBI (LFP), 1 mg/kg iv 1 hr after injury, 24 hr post-injury, vehicle 15.8±1.3, sham 39.6), the “pbtO2 (brain tissue oxygen partial pressure)” value is on record as 34.1±1.6 mmHg. Further, the “ICP (intracranial pressure)” value in series [1] (TBI (LFP), 1 mg/kg iv 1 hr after injury, measured 24 hr post-injury, TBI vehicle 17.4±0.5, sham 4.7) was 7±0.4 mmHg. Besides, the ““spike” in mean arterial blood pressure (MAP) just after administration” value in series [2] is “also observed”. In addition, the “edema in the injured brain” value in the series on injured brain is recorded as “can reduce edema in the injured brain”.
As to `C#C[C@]1(O)CC[C@H]2[C@@H]3CCc4cc(OS(=O)(=O)O)ccc4[C@H]3CC[C@@]21C` [EE-3-SO4, ethinyl 17α-estradiol-3-sulfate], the “survival percentage for 6 hr” value is recorded as 16% in the series on Male Sprague Dawley rats (0.1 mg/kg at MBO, no vehicle controls survived); 50% in the series on Male Sprague Dawley rats (0.3 mg/kg at MBO); 87% with Male Sprague Dawley rats (1.0 mg/kg at MBO); 50% in the series with Male Sprague Dawley rats (3.0 mg/kg at MBO). The “survival from 60% blood loss” value in the series on Male Sprague Dawley rats was 80%; with Male Sprague Dawley rats (listed as EE3-SO4), “exhibits enhanced survival as compared to E2-sulfate”. In the series on Male Sprague Dawley rats (doses 0.1, 0.3, 1.0 and 3.0 mg/kg tested), the “optimum dose to promote rat survival for 6 hr” value came to 1.0 mg/kg. Further, the “potency on a molar equivalent basis” value in the series with isolated vascular rings (FIG. 42, compared with E2-SO4) is recorded as “more potent than E2-SO4”. In addition, the “range of doses with linear response in promoting vessel relaxation” value with isolated vascular rings (vessels contracted by endothelin-1 or phenylephrine, Kreb's buffer) was 10 to 100000 nM. Besides, the “intracranial pressure vs untreated vehicle controls” value in series [1] was “greatly reduce the pressure”. For the same compound, the “reduction in the blood pressure spike with slow push” value in series [2] (iv bolus over 5 min starting at MBO, no further benefit at 10 minutes) is recorded as “complete reduction at 5 minutes”. The ““spike” in mean arterial blood pressure (MAP) just after administration” value in series [2] is on record as “observed”. Further, the “edema in the injured brain” value with injured brain is “can reduce edema in the injured brain”.
Turning to estrogen, in the series with Male SD rats, the survival rate is on record as 68%.
For `CC(=O)[C@H]1CC[C@H]2[C@@H]3CCC4=CC(=O)CC[C@]4(C)[C@H]3CC[C@]12C` [progesterone], the “intracranial pressure vs untreated vehicle controls” value in series [1] was “greatly reduce the pressure”.

For the origin of these results see patent US9359451B2, “Methods and compositions for treating trauma-hemorrhage using estrogen and derivatives thereof” (THE UAB RESEARCH FOUNDATION, priority 2012, dated 2016).
